How the values were obtained:
[1] = test system: coagulation (clotting time, aPTT) of citrated plasma; assay: In vitro clot lysis / coagulation in citrated plasma with t-PA; type: biochemical, Human; conditions: for concentration leading to the same prolongation of aPTT (equipotent concentration): human citrated plasma
Method: Human blood is directly withdrawn into 3.8% sodium citrate solution (ratio blood/citrate solution 9:1). The mixture is centrifuged at 1,000 rpm for 10 min to yield citrated plasma.
A mixture consisting of 150 μl citrated plasma 125 μl 0.9% sodium chloride solution 100 μl desulfato hirudin HV1 or MCI-9038 (see below) in 0.9% sodium chloride is prepared directly in 1 ml cuvettes equilibrated at 37° C. The mixture is incubated for 15 min at 37° C. Then, 25 μl of a 1 μg/ml t-PA stock solution (American Diagnostica, New York) and 300 μl 0.0025M calcium chloride solution are added to start coagulation.
The change in the optical density (coagulation) is continuously measured at 608 nm in a Uvikon 810 P spectrophotometer equipped with a kinetic program.
The time (in minutes) from addition of the CaCl2 solution to a change in absorbance greater than 0.025 is defined as the coagulation time. The clot lysis time (in minutes) is defined as the time from the beginning of the clotting to the time at which the absorbance decreased to 10% of the maximum absorbance.
The thrombin inhibitor MCI-9038 [(2R,4R)-4-methyl-1-[N^2 -[(3-methyl-1,2,3,4-tetrahydro-8-quinolyl)-sulfonyl]-L-arginyl]-2-piperidinecarboxylic acid] is chemically synthesized as described in S. Okamoto et al., Biochem. Biophys. Res. Commun. 101, 440-446 (1981). It is used at the following end concentrations: 0.07, 0.14, 0.28, 0.56 and 1.1 μM. The desulfato hirudin used has been prepared by recombinant DNA technology using transformed yeast according to the procedure described in European Patent Application No. 225,633. It is used at the following end concentrations: 0.8, 1.6, 3.2, 8 and 16 nM. The concentrations chosen of MCI-9038 and desulfato hirudin are equipotent concentrations in terms of prolongation of clotting time (coagulation), e.g. 1.2 μM MCl-9038 and 16 nM desulfato hirudin lead to the same prolongation of aPTT.

[2] = test system: activated partial thromboplastin time; assay: aPTT prolongation in control experiments (rabbit model); type: in vivo, New Zealand white rabbits; conditions: heparin 0.75 mg/kg, hirudin 1 mg/kg
Method: Intravenous infusions are carried out by using a constant rate infusion pump. t-PA derived from melanoma cell cultures is obtained from BioResponse, USA. A total dose of 0.5 mg t-PA is infused through the marginal ear vein over a period of 3 hours. Along with t-PA either saline, standard heparin (KabiVitrum, Sweden, 140 USP/mg; 0.75 mg/kg) or hirudin (1 mg/kg) are infused. Doses of heparin and hirudin are used which give in control experiments the same prolongation in aPTT (activated partial thromboplastin time), e.g. times two.

[3] = test system: preformed non-radioactive thrombi in the jugular vein; assay: Rabbit jugular vein thrombosis model: inhibition of thrombus accretion during thrombolysis with t-PA; type: in vivo, New Zealand white rabbits
Method: The experiments are performed with New Zealand white rabbits (weighing 2.3-3.5 kg) anaesthesized by intravenous (marginal ear vein) injection of 30 mg/kg sodium pentobarbital. Through a paramedical incision of the neck, the jugular veins and the right carotid artery are exposed. The right carotid artery is cannulated with a 1.5 mm diameter polyethylene cannula for blood sampling. The two jugular veins are isolated, cleared over a distance of 2 cm, small side branches are ligated. Each jugular segment is emptied of blood and blood flow is temporarily occluded both proximally and distally by two angiostaths, 1.5 cm apart. A 10 cm length 3.0 TiCron braided polyester suture, presoaked in a collagen solution, is introduced lengthwise in the lumen of the isolated jugular vein for a distance of 4 cm to avoid the embolization of the thrombus to be produced. […] The effects of standard heparin and recombinant desulfato hirudin in preventing thrombus extension during thrombolysis with t-PA are assessed as their ability to inhibit the accretion of ^125 I-fibrinogen onto autologous non-radioactive thrombi preformed in the jugular vein of rabbits. […] The ratio of the radioactivity of the thrombus to the circulating fibrinogen radioactivity is used to quantify thrombus size, which is then expressed as μg or ^125 I-fibrinogen accreted onto the thrombus.

Compound | concentration leading to the same prolongation of aPTT (equipotent concentration) ([1]; equipotent with 16 nM desulfato hirudin) [µM] | concentration needed to achieve the same effect as a given concentration of desulfato hirudin ([1]; relative to desulfato hirudin, in vitro clot lysis) | prolongation in aPTT [2] | concentration leading to the same prolongation of aPTT (equipotent concentration) ([1]; equipotent with 1.2 μM MCI-9038) [µM] | effect on thrombus accretion during t-PA thrombolysis ([3]; FIG. 1, infused along with t-PA, heparin 0.75 mg/kg, desulfato hirudin 1 mg/kg) | effect on thrombus accretion with increasing concentrations ([3]; FIG. 2, t-PA with various concentrations of desulfato hirudin)
CC1CNc2c(cccc2S(=O)(=O)N[C@@H](CCCNC(=N)N)C(=O)N2CC[C@@H](C)C[C@@H]2C(=O)O)C1 (stereo partly drawn) [MCI-9038, (2R,4R)-4-methyl-1-[N^2-[(3-methyl-1,2,3,4-tetrahydro-8-quinolyl)-sulfonyl]-L-arginyl]-2-piperidinecarboxylic acid] | 1.2 | twenty-fold |  |  |  | 
desulfato hirudin HV1 |  |  | times two | 0.016 | clear reduction in thrombus accretion | this effect can even be potentiated

Reference: patent publication US5126134A, “Pharmaceutically active combination” (Ciba-Geigy Corporation, priority 1988, dated 1992)
